Results: patent publication US20240182596A1, “ANTI-NAPI2B ANTIBODIES AND ANTIBODY-DRUG-CONJUGATES BASED THEREON, THERAPEUTIC METHODS AND USES THEREOF” (Tubulis GmbH, priority 2022, published 2024)

System: OVCAR-3 cells
Assay: In vitro inhibition of Topoisomerase-I by delivery of Exatecan via the ADC (DNA-damage markers)
Type: cell-based
Settings: 5 μg/mL, 72 h
Method: OVCAR-3 cells were treated with 5 μg/mL TUB-040 or 5 nM free Exatecan for 72 h. Cells were stained with Live/Dead stain and for the DNA-damage markers active caspase-3, cleaved PARP and phosphorylated H2A.X (Ser-139) and analyzed by flow cytometry. Graphs show means of n=2±SEM (FIG. 9).

Substance: TUB-040
- Induction of DNA-damage markers (active caspase-3, cleaved PARP, phosphorylated H2A.X): induces DNA-damage markers
